Laboratory results reported in US20230121689A1, “CEPHALOSPORIN ANTIBACTERIAL COMPOUND AND PHARMACEUTICAL APPLICATION THEREOF” (priority 2020, published 2023).
≈ marks a conversion by molar mass, not a printed value. Like-named read-outs stand apart in the source and are kept apart here.

Columns and labels:
Assay type in all cases: cell-based
[1] = test system: Carbapenem-resistant Pseudomonas aeruginosa (CRPA, Pseudomonas aeruginosa); experiment: Test Example 2: antibacterial activity test (MIC)
Experimental: (§1) 1. The test compounds were dissolved in sterile normal saline, vortexed for uniformly mixing, and diluted in a 2-fold dilution with the sterile normal saline (11 concentration points in total). The test concentration range was 32-0.031 μg/mL, and two duplicate wells were set for each concentration. Additional wells without drug dosing were set as growth controls. 2. 4 μL of the diluent was added to 196 μL of the bacterial suspension in a 96-well plate (the bacterial count in the bacterial suspension was 2-8×10^5 colony forming units/mL). 3.
(§2) The minimum inhibitory concentration (MIC) assay was performed with reference to the Clinical and Laboratory Standards Institute (CLSI) guidelines.

[2] = test system: Carbapenem-resistant Enterobacteriaceae (CRE, Klebsiella pneumoniae); experiment: Test Example 2: antibacterial activity test (MIC)
Experimental: as §1, §2

[3] = test system: Control Strain Pseudomonas aeruginosa ATCC 27853; experiment: Test Example 2: antibacterial activity test (MIC)
Experimental: as §1, §2

[4] = test system: Carbapenem-resistant Acinetobacter baumannii (CRAB, Acinetobacter baumannii); experiment: Test Example 2: antibacterial activity test (MIC)
Experimental: as §1, §2

[5] = test system: Control strain Escherichia coli ATCC 25922; experiment: Test Example 2: antibacterial activity test (MIC)
Experimental: as §1, §2

[6] = test system: Carbapenem-resistant Acinetobacter baumannii (CRAB); experiment: Test Example 1: antibacterial activity test (MIC)
Experimental: (§3) The test compounds were diluted in a gradient and used for an MIC assay on the test strains. The test compounds at an initial assay concentration of 32 μg/mL were diluted in a 2-fold gradient (11 concentration points in total), and two duplicate wells were set for each concentration. Additional wells without drug dosing were set as growth controls. The minimum inhibitory concentration (MIC) assay was performed with reference to the Clinical and Laboratory Standards Institute (CLSI) guidelines.
(§4) After the frozen strains were subcultured, a single colony was picked and re-suspended in normal saline or sterile water in a tube. The bacterial suspension was vortexed and adjusted to 0.5 McF using a spectrophotometer at the wavelength of 530 nm. The bacterial solution was taken by a pipette, added to a culture medium, diluted and mixed well, and seeded to a bacterial assay plate.
(§5) The 96-well plate was affixed with a disposable sealing film, shaken and mixed well, and visually observed using a plate reader. The minimum concentration of the compounds capable of inhibiting the growth of bacteria was defined as MIC as compared to the growth controls.

[7] = test system: Carbapenem-resistant Enterobacteriaceae (CRE); experiment: Test Example 1: antibacterial activity test (MIC)
Experimental: as §3, §4, §5

[8] = test system: Carbapenem-resistant Pseudomonas aeruginosa (CRPA); experiment: Test Example 1: antibacterial activity test (MIC)
Experimental: as §3, §4, §5

**Q.** Which MIC ([1]; ID-CAMHB, FDA-CDC AR-BANK #0439 (aac(6′)-Il, aadA1b, BCR1, IMP-18, OXA-50), read-out: ID-CAMHB, MIC) does the source give for CC(C)(O/N=C(\C(=O)N[C@@H]1C(=O)N2C(C(=O)[O-])=C(C[N+]3(CC4(NC(=O)c5ccc(O)c(O)c5Cl)CC4)CCCC3)CS[C@H]12)c1csc(N)n1)C(=O)O [Compound 2] here?
**A.** The MIC was 0.5 µg/mL (≈ 0.642 µM).

**Q.** What about the MIC ([1]; ID-CAMHB, FDA-CDC AR-BANK #0441 (KPC-2), read-out: ID-CAMHB, MIC) of the same compound?
**A.** Its MIC is 2 µg/mL (≈ 2.57 µM).

**Q.** What about the MIC ([1]; ID-CAMHB, FDA-CDC AR-BANK #0444 (aac(6′)-Il, dfrB5, OXA-4, tet(G), VIM-2), read-out: ID-CAMHB, MIC) of the same compound?
**A.** The MIC was 4 µg/mL (≈ 5.14 µM).

**Q.** And the MIC ([1]; ID-CAMHB, FDA-CDC AR-BANK #0457 (aadA6, VIM-2), read-out: ID-CAMHB, MIC)?
**A.** The MIC was 0.125 µg/mL (≈ 0.161 µM).

**Q.** And the MIC ([2]; ID-CAMHB, FDA-CDC AR-BANK #0361 (TEM-1; SHV-12; KPC-2), read-out: ID-CAMHB, MIC)?
**A.** Its MIC is 1 µg/mL (≈ 1.28 µM).

**Q.** What about the MIC ([2]; ID-CAMHB, FDA-CDC AR-BANK #0362 (TEM-1; SHV-11; KPC-2), read-out: ID-CAMHB, MIC) of the same compound?
**A.** The MIC was 0.5 µg/mL (≈ 0.642 µM).

**Q.** And the MIC ([2]; ID-CAMHB, FDA-CDC AR-BANK #0363 (TEM-1; SHV-12; KPC-2), read-out: ID-CAMHB, MIC)?
**A.** The MIC was 0.5 µg/mL (≈ 0.642 µM).

**Q.** And the MIC ([2]; ID-CAMHB, FDA-CDC AR-BANK #0438 (aph(3′)-Ia, dfrA12, KPC-3, OmpK35, oqxA, oqxB, SHV-11), read-out: ID-CAMHB, MIC)?
**A.** Its MIC is 1 µg/mL (≈ 1.28 µM).

**Q.** What about the MIC ([2]; ID-CAMHB, FDA-CDC AR-BANK #0453 (KPC-3, OmpK35, oqxA, oqxB, SHV-11, TEM-1B), read-out: ID-CAMHB, MIC) of the same compound?
**A.** Its MIC is 2 µg/mL (≈ 2.57 µM).

**Q.** What about the MIC ([3]; ATCC27853, ID-CAMHB, ATCC 27853, read-out: ID-CAMHB, MIC) of the same compound?
**A.** Its MIC is 0.0625 µg/mL (≈ 0.0803 µM).

**Q.** What about the MIC ([4]; ID-CAMHB, FDA-CDC AR-BANK #0036 (strB, OXA-65, OXA-24, strA, sul2), read-out: ID-CAMHB, MIC) of the same compound?
**A.** Its MIC is 0.5 µg/mL (≈ 0.642 µM).

**Q.** And the MIC ([4]; ID-CAMHB, FDA-CDC AR-BANK #0052 (OXA-58, OXA-100, sul2), read-out: ID-CAMHB, MIC)?
**A.** The MIC was 0.0625 µg/mL (≈ 0.0803 µM).

**Q.** And the MIC ([4]; ID-CAMHB, FDA-CDC AR-BANK #0063 (OXA-23, OXA-65, OXA-24, sul2), read-out: ID-CAMHB, MIC)?
**A.** Its MIC is 16 µg/mL (≈ 20.6 µM).

**Q.** What about the MIC ([4]; ID-CAMHB, FDA-CDC AR-BANK #0070 (OXA-58, OXA-100, sul2), read-out: ID-CAMHB, MIC) of the same compound?
**A.** Its MIC is 0.0625 µg/mL (≈ 0.0803 µM).

**Q.** And the MIC ([4]; ID-CAMHB, FDA-CDC AR-BANK #0101 (strB, OXA-65, OXA-24, strA, sul2), read-out: ID-CAMHB, MIC)?
**A.** Its MIC is 0.5 µg/mL (≈ 0.642 µM).

**Q.** And the MIC ([5]; ATCC25922, ID-CAMHB, ATCC 25922, read-out: ID-CAMHB, MIC)?
**A.** Its MIC is 0.125 µg/mL (≈ 0.161 µM).

**Q.** And the MIC ([6]; CRAB strain No. 100085)?
**A.** The MIC was 0.5 µg/mL (≈ 0.642 µM).

**Q.** And the MIC ([6]; CRAB strain No. 100333)?
**A.** The MIC was 2 µg/mL (≈ 2.57 µM).

**Q.** What about the MIC ([6]; CRAB strain No. 110440) of the same compound?
**A.** Its MIC is 3 µg/mL (≈ 3.85 µM).

**Q.** What about the MIC ([6]; CRAB strain No. 110477) of the same compound?
**A.** Its MIC is 2 µg/mL (≈ 2.57 µM).

**Q.** What about the MIC ([6]; CRAB strain No. 110517) of the same compound?
**A.** Its MIC is 0.5 µg/mL (≈ 0.642 µM).

**Q.** And the MIC ([7]; CRE strain No. 100109)?
**A.** The MIC was 1 µg/mL (≈ 1.28 µM).

**Q.** And the MIC ([7]; CRE strain No. 100186)?
**A.** The MIC was 1.5 µg/mL (≈ 1.93 µM).

**Q.** What about the MIC ([7]; CRE strain No. 110502) of the same compound?
**A.** Its MIC is 6 µg/mL (≈ 7.71 µM).

**Q.** And the MIC ([7]; CRE strain No. 110525)?
**A.** Its MIC is 2 µg/mL (≈ 2.57 µM).

**Q.** What about the MIC ([7]; CRE strain No. 311277) of the same compound?
**A.** The MIC was 1.5 µg/mL (≈ 1.93 µM).

**Q.** What about the MIC ([8]; CRPA strain No. 100110) of the same compound?
**A.** The MIC was 0.031 µg/mL (≈ 0.0398 µM).

**Q.** What about the MIC ([8]; CRPA strain No. 110163) of the same compound?
**A.** Its MIC is 0.5 µg/mL (≈ 0.642 µM).

**Q.** And the MIC ([8]; CRPA strain No. 110224)?
**A.** Its MIC is 0.75 µg/mL (≈ 0.964 µM).

**Q.** What about the MIC ([8]; CRPA strain No. 110358) of the same compound?
**A.** The MIC was 1 µg/mL (≈ 1.28 µM).

**Q.** And the MIC ([8]; CRPA strain No. 110390)?
**A.** Its MIC is 0.5 µg/mL (≈ 0.642 µM).

**Q.** Which results are given for C[C@H](CN(CCCNC(=O)c1ccc(O)c(O)c1Cl)C(=O)c1ccc(O)c(O)c1Cl)[N+]1(CC2=C(C(=O)O)N3C(=O)[C@@H](NC(=O)/C(=N\OC(C)(C)C(=O)O)c4csc(N)n4)[C@H]3SC2)CCCC1 [Compound 11]?
**A.** MIC ([1]; read-out: ID-CAMHB, MIC, ID-CAMHB, FDA-CDC AR-BANK #0439 (aac(6′)-Il, aadA1b, BCR1, IMP-18, OXA-50)): 0.5 µg/mL; MIC ([1]; read-out: ID-CAMHB, MIC, ID-CAMHB, FDA-CDC AR-BANK #0441 (KPC-2)): 8 µg/mL; MIC ([1]; read-out: ID-CAMHB, MIC, ID-CAMHB, FDA-CDC AR-BANK #0444 (aac(6′)-Il, dfrB5, OXA-4, tet(G), VIM-2)): 4 µg/mL; MIC ([1]; read-out: ID-CAMHB, MIC, ID-CAMHB, FDA-CDC AR-BANK #0457 (aadA6, VIM-2)): 0.25 µg/mL; MIC ([2]; read-out: ID-CAMHB, MIC, ID-CAMHB, FDA-CDC AR-BANK #0361 (TEM-1; SHV-12; KPC-2)): 1 µg/mL; MIC ([2]; read-out: ID-CAMHB, MIC, ID-CAMHB, FDA-CDC AR-BANK #0362 (TEM-1; SHV-11; KPC-2)): 0.25 µg/mL; MIC ([2]; read-out: ID-CAMHB, MIC, ID-CAMHB, FDA-CDC AR-BANK #0363 (TEM-1; SHV-12; KPC-2)): 0.5 µg/mL; MIC ([2]; read-out: ID-CAMHB, MIC, ID-CAMHB, FDA-CDC AR-BANK #0438 (aph(3′)-Ia, dfrA12, KPC-3, OmpK35, oqxA, oqxB, SHV-11)): 1 µg/mL; MIC ([2]; read-out: ID-CAMHB, MIC, ID-CAMHB, FDA-CDC AR-BANK #0453 (KPC-3, OmpK35, oqxA, oqxB, SHV-11, TEM-1B)): 1 µg/mL; MIC ([3]; ATCC27853, read-out: ID-CAMHB, MIC): 0.0625 µg/mL; MIC ([4]; read-out: ID-CAMHB, MIC, ID-CAMHB, FDA-CDC AR-BANK #0036 (strB, OXA-65, OXA-24, strA, sul2)): 0.5 µg/mL; MIC ([4]; read-out: ID-CAMHB, MIC, ID-CAMHB, FDA-CDC AR-BANK #0052 (OXA-58, OXA-100, sul2)): 0.125 µg/mL; MIC ([4]; read-out: ID-CAMHB, MIC, ID-CAMHB, FDA-CDC AR-BANK #0063 (OXA-23, OXA-65, OXA-24, sul2)): 4 µg/mL; MIC ([4]; read-out: ID-CAMHB, MIC, ID-CAMHB, FDA-CDC AR-BANK #0070 (OXA-58, OXA-100, sul2)): 0.25 µg/mL; MIC ([4]; read-out: ID-CAMHB, MIC, ID-CAMHB, FDA-CDC AR-BANK #0101 (strB, OXA-65, OXA-24, strA, sul2)): 1 µg/mL; MIC ([5]; ATCC25922, read-out: ID-CAMHB, MIC): 0.125 µg/mL
